This passage reports GI50 and TGI results from PubChem BioAssay (NCI).

Several values for one entry are separate records, joined by “and”; a condition that tells them apart may be missing. Equal entries are not always repeated.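 Following 48 hours of exposure in 96-well plates, responses at five concentrations were used to interpolate endpoints linearly. At the GI50, growth is halved. TGI: concentration producing complete growth inhibition.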

Test systems include COLO 205 colon; DU-145 prostate; HCC-2998 colon; HL-60(TB) leukemia; LOX IMVI melanoma; PC-3 prostate; SN12C renal; UACC-257 melanoma; RPMI-8226 leukemia.
Test in all cases: NCI anticancer screen, dose series, 48 h

Consider `CCC(=O)OC1CCn2c1nc1c2C(=O)C(C)=C(N2CC2)C1=O` (configuration not stated), for which the GI50 was 0.101 µM in the assay on COLO 205 colon; 0.169 µM in the assay on HL-60(TB) leukemia; 0.0311 µM in the assay on LOX IMVI melanoma; 0.0285 µM with SN12C renal; 0.0261 µM with UACC-257 melanoma. The TGI in the assay with COLO 205 colon is 0.235 µM and 0.561 µM; in the assay with DU-145 prostate, 0.0503 µM; in the assay with HCC-2998 colon, 0.214 µM and 0.18 µM; in the assay with HL-60(TB) leukemia it was 0.432 µM and 2.63 µM; in the assay on LOX IMVI melanoma, 0.0886 µM and 0.243 µM; in the assay on PC-3 prostate, 0.306 µM. For the same compound, the TGI was 0.119 µM and 0.333 µM in the assay with SN12C renal; 0.0629 µM and 0.152 µM in the assay with UACC-257 melanoma.
Take `O=C(O)CCC1COc2ccccc2O1` (configuration not stated): the TGI in the assay with COLO 205 colon, in the assay on DU-145 prostate, in the assay with HCC-2998 colon, in the assay on HL-60(TB) leukemia, in the assay on LOX IMVI melanoma and in the assay with PC-3 prostate was greater than 10 µM in each case. Further, the TGI in the assay on RPMI-8226 leukemia, with SN12C renal and with UACC-257 melanoma was greater than 10 µM in each case.
As to `O=S(=O)(NC(=S)Nc1ccccc1)c1ccc(N2N=C3c4ccccc4CC3C2c2cccs2)cc1` (configuration not stated), the GI50 with COLO 205 colon was 41.9 µM; in the assay on DU-145 prostate, 17.8 µM; in the assay with HCC-2998 colon, 13.9 µM; in the assay with LOX IMVI melanoma, 24.4 µM; with PC-3 prostate it was 22.9 µM; in the assay with RPMI-8226 leukemia, 30.3 µM. Further, the GI50 with SN12C renal was 21.4 µM; in the assay with UACC-257 melanoma, 29.1 µM. For the same compound, the TGI was greater than 100 µM in the assay on COLO 205 colon; 41.5 µM in the assay on DU-145 prostate; 30.8 µM with HCC-2998 colon; 70.7 µM with LOX IMVI melanoma; 54.4 µM with PC-3 prostate; 97.6 µM in the assay with RPMI-8226 leukemia. In addition, the values for the TGI in the assay with SN12C renal and with UACC-257 melanoma were 43.2 µM and 79.9 µM, respectively.
For `O=c1cccc(C#Cc2ccccc2)o1`, the GI50 with COLO 205 colon was 12.6 µM; in the assay on DU-145 prostate it was 7.74 µM; in the assay on HL-60(TB) leukemia, 0.71 µM; in the assay with LOX IMVI melanoma, 7.89 µM; with PC-3 prostate it was 3.41 µM; in the assay with RPMI-8226 leukemia it was 0.698 µM. In addition, the GI50 is 14.5 µM in the assay with SN12C renal and 7.74 µM in the assay on UACC-257 melanoma. The TGI with COLO 205 colon is greater than 44.9 µM; with DU-145 prostate it was greater than 68.6 µM; in the assay with HL-60(TB) leukemia it was 8.17 µM; in the assay with LOX IMVI melanoma it was 30.1 µM; with PC-3 prostate it was greater than 40.4 µM; in the assay with RPMI-8226 leukemia it was 12.1 µM. Besides, the TGI with SN12C renal is greater than 53.2 µM; in the assay with UACC-257 melanoma it was 22.4 µM.
With `CCCCCCCCCCCCCC/C(C(=O)OC)=C(/O)C(=O)OCC`, the TGI was greater than 100 µM in the assay with COLO 205 colon; 37.3 µM in the assay on HCC-2998 colon; greater than 100 µM with HL-60(TB) leukemia; 39.3 µM with LOX IMVI melanoma; greater than 100 µM in the assay with RPMI-8226 leukemia; greater than 100 µM with SN12C renal. Besides, the TGI in the assay on UACC-257 melanoma was greater than 100 µM.
`O=C1CC2CCCCC2=C1O` (configuration not stated): the TGI in the assay on COLO 205 colon, in the assay on HCC-2998 colon, in the assay with HL-60(TB) leukemia, with LOX IMVI melanoma, in the assay on RPMI-8226 leukemia and in the assay with SN12C renal was greater than 100 µM throughout. The compound further had a TGI with UACC-257 melanoma greater than 100 µM.
`NC1=NC(c2ccccc2)N=C(Nc2ccccc2)N1` (configuration not stated): the GI50 in the assay on COLO 205 colon was 97.9 µM; with DU-145 prostate it was greater than 100 µM; in the assay with HL-60(TB) leukemia, greater than 100 µM; in the assay with LOX IMVI melanoma it was greater than 100 µM; in the assay with PC-3 prostate, greater than 100 µM; in the assay on RPMI-8226 leukemia, greater than 100 µM. The GI50 in the assay with SN12C renal and in the assay on UACC-257 melanoma was greater than 100 µM each time. In addition, the TGI with COLO 205 colon, in the assay with DU-145 prostate, in the assay with HL-60(TB) leukemia, in the assay on LOX IMVI melanoma, with PC-3 prostate and in the assay on RPMI-8226 leukemia was greater than 100 µM in each case. Further, the TGI in the assay on SN12C renal and in the assay on UACC-257 melanoma was greater than 100 µM in each case.
With `O=C(O)c1cc2ccccc2c(N=Nc2c([N+](=O)[O-])cc([N+](=O)[O-])cc2S(=O)(=O)O)c1O`, the TGI with COLO 205 colon, in the assay on LOX IMVI melanoma, with PC-3 prostate, in the assay with RPMI-8226 leukemia, in the assay on SN12C renal and in the assay with UACC-257 melanoma was greater than 100 µM each time.
`COC(=O)C1=C(C(=O)OC)C23C=CC=CC24C(C(=O)OC)=C(C(=O)OC)C4C1C3` (configuration not stated): the TGI in the assay with COLO 205 colon, in the assay on HCC-2998 colon, in the assay with HL-60(TB) leukemia, in the assay on RPMI-8226 leukemia, with SN12C renal and with UACC-257 melanoma was greater than 100 µM throughout.
As for `NC(=O)c1csc(C2C=CC(CO)O2)n1` (configuration not stated), the TGI in the assay with COLO 205 colon, with HCC-2998 colon, in the assay on HL-60(TB) leukemia, in the assay with LOX IMVI melanoma, in the assay on RPMI-8226 leukemia and in the assay on SN12C renal was greater than 100 µM in each case. In addition, the TGI in the assay with UACC-257 melanoma was greater than 100 µM.
In the case of `C/C(=N\NC(=O)CC(=O)Nc1ccc(Cl)cc1)c1cc2ccccc2oc1=O`, the TGI in the assay with COLO 205 colon, with HL-60(TB) leukemia, in the assay on LOX IMVI melanoma, in the assay on RPMI-8226 leukemia, with SN12C renal and in the assay on UACC-257 melanoma was greater than 100 µM each time.
For the compound `COc1cc2c3c(n(CCCN4CCN(C)CC4)c(=O)c2cc1OC)-c1cc2c(cc1C3=O)OCO2`, the GI50 is 10.3 µM in the assay on COLO 205 colon; 10.6 µM in the assay with DU-145 prostate; 19.5 µM with HL-60(TB) leukemia; 3.81 µM in the assay on LOX IMVI melanoma; 15.8 µM with PC-3 prostate; 2.39 µM in the assay with RPMI-8226 leukemia. Besides, the GI50 in the assay on SN12C renal is 11.4 µM; in the assay with UACC-257 melanoma, greater than 100 µM. Moreover, the TGI amounted to 40.3 µM in the assay on COLO 205 colon; 27.5 µM in the assay on DU-145 prostate; 57.6 µM in the assay on HL-60(TB) leukemia; 20.4 µM in the assay on LOX IMVI melanoma; 36.4 µM in the assay on PC-3 prostate; 14.1 µM in the assay on RPMI-8226 leukemia. Also, the TGI in the assay on SN12C renal is 24.1 µM; in the assay on UACC-257 melanoma, greater than 100 µM.
For the compound `N/N=C1\c2ccccc2C2/C(=N\N)c3ccccc3C12` (configuration not stated), the TGI in the assay on COLO 205 colon, with HCC-2998 colon, with HL-60(TB) leukemia, in the assay with LOX IMVI melanoma, with RPMI-8226 leukemia and in the assay with SN12C renal was greater than 100 µM throughout. The compound also had a TGI in the assay on UACC-257 melanoma greater than 100 µM.
